Holding throughout (format): functional
For experiment [1], the system named is Streptococcus anginosus. Description: Antimicrobial activity against Streptococcus anginosus obtained from patient with cystic fibrosis assessed as non-susceptible isolates grown on mueller-Hinton blood agar at 30 ug/ml after 24 hrs at 37 degC by disk diffusion method in presence of 5% defribinated sheep blood. In general terms: A growth-free zone around the sample is the usual read-out of agar diffusion tests.

Experiment [2] relates to Streptococcus anginosus. Description: Antimicrobial activity against Streptococcus anginosus obtained from patient with cystic fibrosis assessed as non-susceptible isolates grown on brain heart infusion agar at 30 ug/ml after 24 hrs at 37 degC by disk diffusion method.
For experiment [3], the system named is Streptococcus constellatus. Description: Antimicrobial activity against Streptococcus constellatus obtained from patient with cystic fibrosis assessed as non-susceptible isolates grown on mueller-Hinton blood agar at 30 ug/ml after 24 hrs at 37 degC by disk diffusion method in presence of 5% defribinated sheep blood.
For experiment [4], the system named is Streptococcus constellatus. Description: Antimicrobial activity against Streptococcus constellatus obtained from patient with cystic fibrosis assessed as non-susceptible isolates grown on brain heart infusion agar at 30 ug/ml after 24 hrs at 37 degC by disk diffusion method.
Experiment [5] deals with Streptococcus intermedius. Description: Antimicrobial activity against Streptococcus intermedius obtained from patient with cystic fibrosis assessed as non-susceptible isolates grown on mueller-Hinton blood agar at 30 ug/ml after 24 hrs at 37 degC by disk diffusion method in presence of 5% defribinated sheep blood.
Experiment [6] deals with Streptococcus intermedius. Description: Antimicrobial activity against Streptococcus intermedius obtained from patient with cystic fibrosis assessed as non-susceptible isolates grown on brain heart infusion agar at 30 ug/ml after 24 hrs at 37 degC by disk diffusion method.
For experiment [7], the system named is Streptococcus anginosus. Description: Antimicrobial activity against invasive Streptococcus anginosus obtained from non-cystic fibrosis patient assessed as non-susceptible isolates grown on mueller-Hinton blood agar at 30 ug/ml after 24 hrs at 37 degC by disk diffusion method in presence of 5% defribinated sheep blood.
Experiment [8] deals with Streptococcus anginosus. Description: Antimicrobial activity against invasive Streptococcus anginosus obtained from non-cystic fibrosis patient assessed as non-susceptible isolates grown on brain heart infusion agar at 30 ug/ml after 24 hrs at 37 degC by disk diffusion method.
Experiment [9] relates to Streptococcus constellatus. Description: Antimicrobial activity against invasive Streptococcus constellatus obtained from non-cystic fibrosis patient assessed as non-susceptible isolates grown on mueller-Hinton blood agar at 30 ug/ml after 24 hrs at 37 degC by disk diffusion method in presence of 5% defribinated sheep blood.
Experiment [10] relates to Streptococcus constellatus. Description: Antimicrobial activity against invasive Streptococcus constellatus obtained from non-cystic fibrosis patient assessed as non-susceptible isolates grown on brain heart infusion agar at 30 ug/ml after 24 hrs at 37 degC by disk diffusion method.
The subject of experiment [11] is Streptococcus intermedius. Description: Antimicrobial activity against invasive Streptococcus intermedius obtained from non-cystic fibrosis patient assessed as non-susceptible isolates grown on mueller-Hinton blood agar at 30 ug/ml after 24 hrs at 37 degC by disk diffusion method in presence of 5% defribinated sheep blood.
The subject of experiment [12] is Streptococcus intermedius. Description: Antimicrobial activity against invasive Streptococcus intermedius obtained from non-cystic fibrosis patient assessed as non-susceptible isolates grown on brain heart infusion agar at 30 ug/ml after 24 hrs at 37 degC by disk diffusion method.
Experiment [13] relates to Streptococcus anginosus. Description: Antimicrobial activity against Streptococcus anginosus obtained from patient with cystic fibrosis assessed as non-susceptible isolates grown on mueller-Hinton blood agar at 15 ug/ml after 24 hrs at 37 degC by disk diffusion method in presence of 5% defribinated sheep blood.
The subject of experiment [14] is Streptococcus anginosus. Description: Antimicrobial activity against Streptococcus anginosus obtained from patient with cystic fibrosis assessed as non-susceptible isolates grown on brain heart infusion agar at 15 ug/ml after 24 hrs at 37 degC by disk diffusion method.
The subject of experiment [15] is Streptococcus constellatus. Description: Antimicrobial activity against Streptococcus constellatus obtained from patient with cystic fibrosis assessed as non-susceptible isolates grown on mueller-Hinton blood agar at 15 ug/ml after 24 hrs at 37 degC by disk diffusion method in presence of 5% defribinated sheep blood.
Experiment [16] relates to Streptococcus constellatus. Description: Antimicrobial activity against Streptococcus constellatus obtained from patient with cystic fibrosis assessed as non-susceptible isolates grown on brain heart infusion agar at 15 ug/ml after 24 hrs at 37 degC by disk diffusion method.
The subject of experiment [17] is Streptococcus intermedius. Description: Antimicrobial activity against Streptococcus intermedius obtained from patient with cystic fibrosis assessed as non-susceptible isolates grown on mueller-Hinton blood agar at 15 ug/ml after 24 hrs at 37 degC by disk diffusion method in presence of 5% defribinated sheep blood.
Experiment [18] has as its system Streptococcus intermedius. Description: Antimicrobial activity against Streptococcus intermedius obtained from patient with cystic fibrosis assessed as non-susceptible isolates grown on brain heart infusion agar at 15 ug/ml after 24 hrs at 37 degC by disk diffusion method.
Experiment [19] has as its system Streptococcus anginosus. Description: Antimicrobial activity against invasive Streptococcus anginosus obtained from non-cystic fibrosis patient assessed as non-susceptible isolates grown on mueller-Hinton blood agar at 15 ug/ml after 24 hrs at 37 degC by disk diffusion method in presence of 5% defribinated sheep blood.
Experiment [20] deals with Streptococcus anginosus. Description: Antimicrobial activity against invasive Streptococcus anginosus obtained from non-cystic fibrosis patient assessed as non-susceptible isolates grown on brain heart infusion agar at 15 ug/ml after 24 hrs at 37 degC by disk diffusion method.
Experiment [21] concerns Streptococcus constellatus. Description: Antimicrobial activity against invasive Streptococcus constellatus obtained from non-cystic fibrosis patient assessed as non-susceptible isolates grown on mueller-Hinton blood agar at 15 ug/ml after 24 hrs at 37 degC by disk diffusion method in presence of 5% defribinated sheep blood.
The subject of experiment [22] is Streptococcus constellatus. Description: Antimicrobial activity against invasive Streptococcus constellatus obtained from non-cystic fibrosis patient assessed as non-susceptible isolates grown on brain heart infusion agar at 15 ug/ml after 24 hrs at 37 degC by disk diffusion method.
Experiment [23] relates to Streptococcus intermedius. Description: Antimicrobial activity against invasive Streptococcus intermedius obtained from non-cystic fibrosis patient assessed as non-susceptible isolates grown on mueller-Hinton blood agar at 15 ug/ml after 24 hrs at 37 degC by disk diffusion method in presence of 5% defribinated sheep blood.
The subject of experiment [24] is Streptococcus intermedius. Description: Antimicrobial activity against invasive Streptococcus intermedius obtained from non-cystic fibrosis patient assessed as non-susceptible isolates grown on brain heart infusion agar at 15 ug/ml after 24 hrs at 37 degC by disk diffusion method.
The subject of experiment [25] is Streptococcus anginosus. Description: Antimicrobial activity against Streptococcus anginosus obtained from patient with cystic fibrosis assessed as non-susceptible isolates grown on mueller-Hinton blood agar at 2 ug/ml after 24 hrs at 37 degC by disk diffusion method in presence of 5% defribinated sheep blood.
The test system of experiment [26] is Streptococcus anginosus. Description: Antimicrobial activity against Streptococcus anginosus obtained from patient with cystic fibrosis assessed as non-susceptible isolates grown on brain heart infusion agar at 2 ug/ml after 24 hrs at 37 degC by disk diffusion method. As to conditions: at 2 µg/mL.
Experiment [27] deals with Streptococcus constellatus. Description: Antimicrobial activity against Streptococcus constellatus obtained from patient with cystic fibrosis assessed as non-susceptible isolates grown on mueller-Hinton blood agar at 2 ug/ml after 24 hrs at 37 degC by disk diffusion method in presence of 5% defribinated sheep blood.
Experiment [28] deals with Streptococcus constellatus. Description: Antimicrobial activity against Streptococcus constellatus obtained from patient with cystic fibrosis assessed as non-susceptible isolates grown on brain heart infusion agar at 2 ug/ml after 24 hrs at 37 degC by disk diffusion method. As to conditions: at 2 µg/mL.
For experiment [29], the system named is Streptococcus intermedius. Description: Antimicrobial activity against Streptococcus intermedius obtained from patient with cystic fibrosis assessed as non-susceptible isolates grown on mueller-Hinton blood agar at 2 ug/ml after 24 hrs at 37 degC by disk diffusion method in presence of 5% defribinated sheep blood.
Experiment [30] relates to Streptococcus intermedius. Description: Antimicrobial activity against Streptococcus intermedius obtained from patient with cystic fibrosis assessed as non-susceptible isolates grown on brain heart infusion agar at 2 ug/ml after 24 hrs at 37 degC by disk diffusion method. Conditions: at 2 µg/mL.
Experiment [31] concerns Streptococcus anginosus. Description: Antimicrobial activity against invasive Streptococcus anginosus obtained from non-cystic fibrosis patient assessed as non-susceptible isolates grown on mueller-Hinton blood agar at 2 ug/ml after 24 hrs at 37 degC by disk diffusion method in presence of 5% defribinated sheep blood.
In experiment [32] the test system is Streptococcus anginosus. Description: Antimicrobial activity against invasive Streptococcus anginosus obtained from non-cystic fibrosis patient assessed as non-susceptible isolates grown on brain heart infusion agar at 2 ug/ml after 24 hrs at 37 degC by disk diffusion method. Conditions: at 2 µg/mL.
In experiment [33] the test system is Streptococcus constellatus. Description: Antimicrobial activity against invasive Streptococcus constellatus obtained from non-cystic fibrosis patient assessed as non-susceptible isolates grown on mueller-Hinton blood agar at 2 ug/ml after 24 hrs at 37 degC by disk diffusion method in presence of 5% defribinated sheep blood.
The test system of experiment [34] is Streptococcus constellatus. Description: Antimicrobial activity against invasive Streptococcus constellatus obtained from non-cystic fibrosis patient assessed as non-susceptible isolates grown on brain heart infusion agar at 2 ug/ml after 24 hrs at 37 degC by disk diffusion method. Conditions: at 2 µg/mL.
Experiment [35] relates to Streptococcus intermedius. Description: Antimicrobial activity against invasive Streptococcus intermedius obtained from non-cystic fibrosis patient assessed as non-susceptible isolates grown on mueller-Hinton blood agar at 2 ug/ml after 24 hrs at 37 degC by disk diffusion method in presence of 5% defribinated sheep blood.
Experiment [36] relates to Streptococcus intermedius. Description: Antimicrobial activity against invasive Streptococcus intermedius obtained from non-cystic fibrosis patient assessed as non-susceptible isolates grown on brain heart infusion agar at 2 ug/ml after 24 hrs at 37 degC by disk diffusion method. As to conditions: at 2 µg/mL.

For `CO/N=C(\C(=O)N[C@@H]1C(=O)N2C(C(=O)[O-])=C(C[N+]3(C)CCCC3)CS[C@H]12)c1csc(N)n1`, the Activity worked out at 2.5% with Streptococcus anginosus [1]; 0% with Streptococcus anginosus [2]; 0% in experiment [3]; 0% in [4]; 0% in experiment [5]; 3.1% in experiment [6]. Further, the Activity (in the experiment on Streptococcus anginosus [7]; in the experiment with Streptococcus anginosus [8]; in experiment [9]; in experiment [10]; in experiment [11]; in experiment [12]) was 0% in each case.
Turning to `CC[C@H]1OC(=O)[C@H](C)[C@@H](O[C@H]2C[C@@](C)(OC)[C@@H](O)[C@H](C)O2)[C@H](C)[C@@H](O[C@@H]2O[C@H](C)C[C@H](N(C)C)[C@H]2O)[C@](C)(O)C[C@@H](C)CN(C)[C@H](C)[C@@H](O)[C@]1(C)O` [AZITHROMYCIN], the Activity in the experiment with Streptococcus anginosus [13] is given as 60%; in the experiment with Streptococcus anginosus [14], 56.5%; in experiment [15], 20%; in experiment [16], 65%; in [17], 50%; in experiment [18], 34.4%. The Activity with Streptococcus anginosus [19] is given as 11.1%; with Streptococcus anginosus [20], 0%; in [21], 0%; in experiment [22] it was 7.7%; in experiment [23] it was 28.6%; in experiment [24], 16.7%.
Take `CO/N=C(\C(=O)N[C@@H]1C(=O)N2C(C(=O)O)=C(CSc3nc(=O)c(O)nn3C)CS[C@H]12)c1csc(N)n1` [CEFTRIAXONE]: the Activity (with Streptococcus anginosus [1]; in [3]; in [5]; in the experiment on Streptococcus anginosus [7]; in [9]; in experiment [11]) was 0% in each case.
Regarding `CC[C@H]1OC(=O)[C@H](C)[C@@H](O[C@H]2C[C@@](C)(OC)[C@@H](O)[C@H](C)O2)[C@H](C)[C@@H](O[C@@H]2O[C@H](C)C[C@H](N(C)C)[C@H]2O)[C@](C)(O)C[C@@H](C)C(=O)[C@H](C)[C@@H](O)[C@]1(C)O` [ERYTHROMYCIN], the Activity with Streptococcus anginosus [13] came to 57.5%; in the experiment with Streptococcus anginosus [14], 52.2%; in experiment [15], 20%; in experiment [16] it was 65%; in experiment [17], 50%; in [18], 34.4%. The Activity came to 11.1% in the experiment with Streptococcus anginosus [19]; 11.1% with Streptococcus anginosus [20]; 0% in experiment [21]; 7.7% in [22]; 28.6% in experiment [23]; 16.7% in experiment [24].
Consider `CN(C)[C@@H]1C(O)=C(C(N)=O)C(=O)[C@@]2(O)C(O)=C3C(=O)c4c(O)cccc4[C@@](C)(O)[C@H]3C[C@@H]12` [TETRACYCLINE], for which the Activity with Streptococcus anginosus [1] came out at 27.5%; in experiment [3], 0%; in [5], 0%; in experiment [9], 33.3%; in experiment [11], 0%.
In the case of `CCC[C@@H]1C[C@@H](C(=O)N[C@@H]([C@H]2O[C@H](SC)[C@H](O)[C@@H](O)[C@H]2O)[C@H](C)Cl)N(C)C1` [CLINDAMYCIN], the Activity worked out at 52.5% with Streptococcus anginosus [25]; 56.5% with Streptococcus anginosus [26]; 20% in [27]; 62.5% in experiment [28]; 50% in experiment [29]; 28.1% in experiment [30]. Moreover, the Activity with Streptococcus anginosus [31] came out at 0%; in the experiment with Streptococcus anginosus [32] it was 0%; in [33], 0%; in experiment [34], 0%; in experiment [35], 28.6%; in experiment [36] it was 12.5%.

(Values after ChEMBL document CHEMBL1629685, “Macrolide and clindamycin resistance in Streptococcus milleri group isolates from the airways of cystic fibrosis patients” (2010).)
